Tests used:
[1] = test system: thrombocytes; experiment: ADP-induced aggregation of thrombocytes after intravenous administration (in vivo); design: species or system rabbit
Method: The experiments were carried out on male rabbits of the “Chinchilla” breed having a mass of 2.7±0.3 kg. 18-24 hours prior to the experiment they were deprived of feed while preserving free access to water.
To obtain plasma enriched with thrombocytes, blood was taken from a cut of a marginal vein of the rabbit ear, the sample was stabilized with 3.8% of sodium citrate solution in a ratio of 9:1 and centrifuged at 200 g (1000 rev/min) for 10 minutes. The top supernatant layer enriched with thrombocytes was transferred by an automatic dropper into a silicone test tube and kept at 37° C. The plasma enriched with thrombocytes contained, on the average, […]. If this content exceeded the specified 3×10^8 blood platelets in 1 liter, this sample was diluted to the necessary concentration with plasma deprived of thrombocytes, which was obtained by centrifuging blood at 650 g during 10 minutes.
The measurements of the optical density of the samples were made on two-channel aggregometer of the “Chronolog” Company (USA). A flask containing 490 mkl of plasma rich with thrombocytes was placed in a device, into which a magnetic agitator covered with Teflon was lowered. The index of maximum amplitude of aggregation (MA) in percent of a fall of the plasma optical density under effect of the aggregation inductor was recorded. The control index MA of plasma was compared with the MA of plasma incubated for 3 minutes with different concentrations of the compounds: from 10^−3 to 10^−7 in vitro experiments or with plasma obtained 15, 30, 60 and 120 minutes after intravenous administration of different doses of the compounds in vivo experiments.
The process of aggregation of thrombocytes was recorded with the help of a computer; on the monitor screen the there were depicted curves reflecting changes of the optical density of the plasma enriched which was taken as a standard 100% compared to the optical density of the non-thrombocyte plasma taken for 0% content of thrombocytes.
The antiaggregative capability of compounds 2, 15, 21, 37, according to the invention was tested in experiments in vivo. Introduced to the test animals intravenously were an aggregation inductor ADP at a concentration of 10^−5 M was and then the compounds according to the invention. The doses of the compounds were in a range from 15 to 60 mg/kg.
For leveling the different effects of the compounds in different days due the ambient temperature, humidity and other parameters, 2 animals of each series were taken for experiments every day. Under “series” there is understood a group of 6 animals used for studying one of the doses of the compounds.
The blood for obtaining plasma enriched with thrombocytes was taken from marginal vein of the rabbit ear: in the control group—directly before introducing the tested compounds; in investigated groups—15 minutes after introducing these compounds and then after 30, 60, 120 minutes and so on up to the moment when the effect of suppression of aggregation disappeared.
The quantity of thrombocytes was counted before the experiment and at the end thereof in each plasma sample.

[2] = Chronic toxicity of suppositories: biochemical indexes of blood serum; type: in vivo, rats; conditions: rat, in vivo;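 further: inbred rats dosed rectally with softened suppositories, controls given matching volumes of sterile medical liquid paraffin, serum sampled one month into a two-month dosing course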
Method: The experiments were conducted on inbred rats.
Two doses of preparations used in the experiments: 50 mg/kg and 500 mg/kg. Before the administration, the suppositories were softened by heating in a glass water bath at a temperature of 38-39° C., the soft mass was collected in tuberculin syringe in a volume of 1 ml, a needle with oliva was attached to the syringe, and the preparatory mass was introduced into the rectum of the animal for a depth of 1.5-2.0 cm. The animals of the control group were administered with sterile medical liquid paraffin in a volume corresponding to the volume of the investigated suppository. A complete course of administration of drugs to the animals was two months. A complex of laboratory diagnostic investigations was carried out one month after the beginning of the administration of the preparation to the animal—in a middle of the course (8 animals), two months after ending the course (8 animals) and three months after ending the recovery period of one month (8 animals). The mass of the body of the rats in the first month of administration of the preparation was determined weekly, and then once in two weeks. On the basis of the dynamics of an index of the mass of the animal body, the volume of preparation being administered was corrected taking into account the test dose.

[3] = test system: plasma hemostasis; experiment: Partial activated thromboplastin time (PATT) after intravenous administration; type: in vivo, rabbit
Method: The static parameters of the blood and plasma coagulation (partial activated thromboplastin time, thrombin time, maximum coagulation activity (test for auto coagulation) were determined using the Behnk Electronic coagulometer (Germany). The operating principle of this instrument is based on the fact that the formed blood clot breaks the contacts of the pulse counter in the flask-pin circuit, said pin permanently oscillating in a vertical plane. The moment of formation of the clot is registered by stopping the stop watch hand.
The measurements were effected at a constant temperature of 37° C. maintained by a temperature control unit.

[4] = test system: thrombocytes; experiment: ADP-induced aggregation of thrombocytes in vitro (Born method, plasma enriched with thrombocytes); type: cell-based, rabbit; conditions: 3-minute incubation, ADP 10^−5 M

Nc1ccnc2c(=O)n([C@@H]3O[C@H](CO)[C@@H](O)[C@H]3O)[nH]c(=O)c12 [Compound 2, 4-amino-7-(β-D-ribofuranosile)pyrido[2,3-d]-6H-pyridazine-5,8-dione]
MA - drop of optical density ([1]; 15.0 mg/kg intravenously, after 15 minutes, control 50.1 ± 1.7): 44.2 ± 2.0 %
MA - drop of optical density ([1]; 15.0 mg/kg intravenously, after 30 minutes, control 50.1 ± 1.7): 42.2 ± 1.6 %
MA - drop of optical density ([1]; 15.0 mg/kg intravenously, after 60 minutes, control 50.1 ± 1.7): 46.9 ± 1.7 %
MA - drop of optical density ([1]; 15.0 mg/kg intravenously, after 120 minutes, control 50.1 ± 1.7): 49.2 ± 2.0%
MA - drop of optical density ([1]; 30.0 mg/kg intravenously, after 15 minutes, control 61.0 ± 1.3): 45.3 ± 2.0 %
MA - drop of optical density ([1]; 30.0 mg/kg intravenously, after 30 minutes, control 61.0 ± 1.3): 43.7 ± 1.7 %
MA - drop of optical density ([1]; 30.0 mg/kg intravenously, after 60 minutes, control 61.0 ± 1.3): 40.1 ± 2.2 %
MA - drop of optical density ([1]; 30.0 mg/kg intravenously, after 120 minutes, control 61.0 ± 1.3): 59.7 ± 2.2%
MA - drop of optical density ([1]; 60.0 mg/kg intravenously, after 15 minutes, control 48.6 ± 1.3): 45.2 ± 1.2 %
MA - drop of optical density ([1]; 60.0 mg/kg intravenously, after 30 minutes, control 48.6 ± 1.3): 43.6 ± 2.0 %
MA - drop of optical density ([1]; 60.0 mg/kg intravenously, after 60 minutes, control 48.6 ± 1.3): 47.8 ± 1.5%
MA - drop of optical density ([1]; 60.0 mg/kg intravenously, after 120 minutes, control 48.6 ± 1.3): 48.0 ± 1.2%
ALT in blood serum ([2]; 50 mg/kg): 10.84 ± 2.02 unit/l
AST in blood serum ([2]; 50 mg/kg): 20.41 ± 3.06 unit/1
Alkalinous phosphatase in blood serum ([2]; 50 mg/kg): 42.12 ± 4.23 unit/l
Bilirubin in blood serum ([2]; 50 mg/kg): 44.38 ± 4.12 mmol/L
Cholesterol in blood serum ([2]; 50 mg/kg): 2.77 ± 0.71 mmol/L
Creatinine in blood serum ([2]; 50 mg/kg): 47.38 ± 3.26 mkmol/l
Glucose in blood serum ([2]; 50 mg/kg): 9.85 ± 0.37 mM
Total protein in blood serum ([2]; 50 mg/kg): 87.34 ± 5.56 g/L
Urea in blood serum ([2]; 50 mg/kg): 11.02 ± 0.73 Mkmol/l
ALT in blood serum ([2]; 500 mg/kg): 11.23 ± 1.70 unit/l
AST in blood serum ([2]; 500 mg/kg): 20.13 ± 2.95 unit/1
Alkalinous phosphatase in blood serum ([2]; 500 mg/kg): 43.4 ± 2.12 unit/l
Bilirubin in blood serum ([2]; 500 mg/kg): 42.56 ± 7.56 mmol/L
Cholesterol in blood serum ([2]; 500 mg/kg): 2.96 ± 0.52 mmol/L
Creatinine in blood serum ([2]; 500 mg/kg): 49.87 ± 8.12 mkmol/l
Glucose in blood serum ([2]; 500 mg/kg): 10.2 ± 0.74 mM
Total protein in blood serum ([2]; 500 mg/kg): 70.84 ± 7.47 g/L
Urea in blood serum ([2]; 500 mg/kg): 11.30 ± 0.80 Mkmol/l
PATT, T ([3]; 15.0 mg/kg intravenously, after 15 minutes, control 37.0 ± 0.2): 37.0 ± 0.1 s
PATT, T ([3]; 15.0 mg/kg intravenously, after 30 minutes, control 37.0 ± 0.2): 37.0 ± 0.2 s
PATT, T ([3]; 15.0 mg/kg intravenously, after 60 minutes, control 37.0 ± 0.2): 36.9 ± 0.1 s
PATT, T ([3]; 15.0 mg/kg intravenously, after 120 minutes, control 37.0 ± 0.2): 37.0 ± 0.3 s
PATT, T ([3]; 30.0 mg/kg intravenously, after 15 minutes, control 33.3 ± 0.8): 32.7 ± 0.5 s
PATT, T ([3]; 30.0 mg/kg intravenously, after 30 minutes, control 33.3 ± 0.8): 32.0 ± 0.1 s
PATT, T ([3]; 30.0 mg/kg intravenously, after 60 minutes, control 33.3 ± 0.8): 32.2 ± 0.1 s
PATT, T ([3]; 30.0 mg/kg intravenously, after 120 minutes, control 33.3 ± 0.8): 32.1 ± 0.2 s
PATT, T ([3]; 60.0 mg/kg intravenously, after 15 minutes, control 32.5 ± 0.3): 32.3 ± 0.2 s
PATT, T ([3]; 60.0 mg/kg intravenously, after 30 minutes, control 32.5 ± 0.3): 32.4 ± 0.1 s
PATT, T ([3]; 60.0 mg/kg intravenously, after 60 minutes, control 32.5 ± 0.3): 32.3 ± 0.1 s
PATT, T ([3]; 60.0 mg/kg intravenously, after 120 minutes, control 32.5 ± 0.3): 32.4 ± 0.1 s
effect on the PATT ([3]; doses 15.0, 30.0, 60.0 mg/kg): do not affect the PATT
MA - fall of optical density of plasma, % to the standard ([4]; 10^−3 M, control 60.8 ± 3.4): 51.4 ± 2.7 %
MA - fall of optical density of plasma, % to the standard ([4]; 10^−4 M, control 60.0 ± 2.1): 50.4 ± 1.7 %
MA - fall of optical density of plasma, % to the standard ([4]; 10^−5 M, control 52.5 ± 2.1): 48.2 ± 1.0 %
MA - drop of optical density, % ([4]; 10^−6 M, control 52.8 ± 1.8): 50.1 ± 2.0%
MA - drop of optical density, % ([4]; 10^−7 M, control 51.5 ± 2.1): 50.8 ± 2.2%

Reference: patent US8592421B2, “Cyclic bioisosters of purine system derivatives and a pharmaceutical composition based thereon” (priority 2003, dated 2013)
